Patent US7691844B2, “Nonpeptide substituted spirobenzoazepines as vasopressin antagonists” (Ortho-McNeil Pharmaceutical, Inc., priority 2000, dated 2010)

What was measured:
V1a [1] = target: T1, V1a (Homo sapiens, UniProt P37288); test: In-vitro receptor binding assay (3H-arginine-8-vasopressin), V1a
Summary of the method: (§1)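 Radioligand is 3H-arginine-8-vasopressin, incubated with receptor for one hour at room temperature, then filtered on GF/C plates and counted by scintillation. Non-specific binding was defined with 1.25 μM vasopressin, and results are given as % inhibition.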

human V2 receptor = human V2 receptor (Homo sapiens, UniProt P30518); test: In-vitro receptor binding assay (3H-arginine-8-vasopressin), V2
Summary of the method: as §1

V1a [2] = target: T1, V1a; test: V1a vasopressin receptor functional activity (inhibition of vasopressin-induced intracellular calcium, FLIPR, V1a-HEK cells); assay type: cell-based; parameters: expressed in transfected cells; details: HEK-293 cells transfected with human V1a receptor; vasopressin challenge
Protocol: [formula] (B) V1a Vasopressin Receptor Functional Activity
The V1a receptor is a G-protein coupled receptor, which upon activation triggers an increase in intracellular calcium mobilization. To evaluate compounds for their functional V1a receptor activity, HEK-293 cells were transfected with the human V1a receptor (V1a-HEK cells). HEK-293 cells were grown in DMEM (Dulbecco's modified Eagle Media) supplemented with 10% FBS and glutamine. HEK-cells were passed biweekly by trypsinization and seeded into 96 well plates at 33,000 cells per well. HEK-293 cells were transfected with human V1a receptor DNA using DMRIE-C reagent from Life Technologies. Stable lines were generated by selecting cells grown in culture media containing geneticin. After growing in Packard Clear-View black 96 well plates for 4-6 days, V1a-HEK cells were loaded with the calcium-sensitive fluorescence dye, FLUO-3 AM. Changes in cell fluorescence were quantitated using FLIPR (Fluorometric Imaging Plate Reader; Molecular Devices, Sunnyvale, Calif.). Test compounds were first added to the cells and the resulting changes in fluorescence measured to detect receptor agonistic activity. Five minutes later the cells were challenged with vasopressin to test compounds for their antagonistic activity. Receptor antagonists inhibit the ability of vasopressin to stimulate increases in intracellular fluorescence. IC50's were calculated.

[3] = @ 1 μM, read-out: Receptor Binding V2 (% Inh. @ concentration in μM)
[4] = @ 0.1 μM, read-out: Receptor Binding V2 (% Inh. @ concentration in μM)

T1 sequence (P37288 whole entry): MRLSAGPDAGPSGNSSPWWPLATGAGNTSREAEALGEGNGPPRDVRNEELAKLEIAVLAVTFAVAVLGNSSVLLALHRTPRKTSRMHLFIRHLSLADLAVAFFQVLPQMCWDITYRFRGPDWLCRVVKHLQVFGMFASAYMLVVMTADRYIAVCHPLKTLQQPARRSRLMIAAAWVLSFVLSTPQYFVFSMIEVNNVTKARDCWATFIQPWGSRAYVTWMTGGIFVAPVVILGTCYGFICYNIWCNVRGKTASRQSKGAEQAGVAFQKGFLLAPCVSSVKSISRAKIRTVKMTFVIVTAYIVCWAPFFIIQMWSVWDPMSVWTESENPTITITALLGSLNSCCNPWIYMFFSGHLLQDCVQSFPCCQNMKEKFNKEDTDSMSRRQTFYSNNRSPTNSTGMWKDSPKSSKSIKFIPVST
Chain of human V2 receptor (P30518 whole entry): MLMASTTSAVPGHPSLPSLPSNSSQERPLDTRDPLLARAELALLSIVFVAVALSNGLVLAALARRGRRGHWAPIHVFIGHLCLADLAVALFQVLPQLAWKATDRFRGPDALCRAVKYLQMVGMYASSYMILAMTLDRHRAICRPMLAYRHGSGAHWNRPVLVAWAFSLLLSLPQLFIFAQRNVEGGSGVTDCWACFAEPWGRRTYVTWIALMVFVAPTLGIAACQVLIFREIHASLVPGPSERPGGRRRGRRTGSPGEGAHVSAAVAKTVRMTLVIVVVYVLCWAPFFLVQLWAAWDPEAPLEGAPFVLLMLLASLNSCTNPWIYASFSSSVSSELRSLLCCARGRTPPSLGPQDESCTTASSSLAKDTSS

| SMILES | IC50 (V1a [1]) | IC50 (human V2 receptor) | IC50 (V1a [2]) | also measured |
| --- | --- | --- | --- | --- |
| O=C(Nc1ccc(C(=O)N2CCC3(C=C(CO)CC3)Cc3ccccc32)cc1)c1ccccc1-c1ccccc1 (stereo not drawn) [Compound 1, 4-(2-Phenylbenzoyl-4-aminobenzoyl)-3′-(hydroxymethyl)-4-aza-[6,4]-spiro-[5,6]-benzoundec-2′-ene] | 0.009 µM | 0.018 µM | < 0.01 µM |  |
| Cc1cc(F)ccc1C(=O)Nc1ccc(C(=O)N2CCC3(C=CCCC3)Cc3ccccc32)cc1 (stereo not drawn) [Compound 99] | 0.041 µM |  | 0.08 µM | inhibition at 1 µM (human V2 receptor; [3]): 35% |
| COC(=O)CNCC1=CC2(CC1)CCN(C(=O)c1ccc(NC(=O)c3cc(F)ccc3C)cc1)c1ccccc1C2 (stereo not drawn) [Compound 15] | 0.007 µM | 0.1 µM | 0.135 µM |  |
| Cc1ccc(F)cc1C(=O)Nc1ccc(C(=O)N2CCC3(C=C(C(=O)NCCN(C)C)CC3)Cc3ccccc32)cc1 (stereo not drawn) [Compound 13] | 0.005 µM | 0.018 µM | 0.07 µM |  |
| CC(=O)N(C)CC1=CC2(CC1)CCN(C(=O)c1ccc(NC(=O)c3ccccc3-c3ccccc3)cc1)c1ccccc1C2 (stereo not drawn) [Compound 5, 4-(2-Phenylbenzoyl-4-aminobenzoyl)-3′-(N-methyl-N-acetylaminomethyl)-4-aza-[6,4]-spiro-[5,6]-benzoundec-2′-ene] | 0.02 µM | 0.022 µM | < 0.01 µM |  |
| O=C(Nc1ccccc1)c1ccc(C(=O)N2CCCC3(C=CCCC3)c3ccccc32)cc1 (stereo not drawn) [Compound 27] | 0.1 µM | 0.27 µM | 0.008 µM |  |
| Cc1cc(F)ccc1C(=O)Nc1ccc(C(=O)N2CCC3(C=CCCC3)Cc3ccccc32)cc1 (stereo not drawn) [Compound 100] | 0.008 µM | 0.067 µM | 0.05 µM |  |
| Cc1ccc(F)cc1C(=O)Nc1ccc(C(=O)N2CCC3(C=C(C(=O)NCCCN(C)C)CC3)Cc3ccccc32)cc1 (stereo not drawn) [Compound 14] | 0.005 µM | 0.023 µM | 0.059 µM |  |
| O=C(NCCN1CCOCC1)C1=CC2(CC1)CCN(C(=O)c1ccc(NC(=O)c3ccccc3F)cc1)c1ccccc1C2 (stereo not drawn) [Compound 17] | 0.014 µM |  | 0.227 µM | inhibition at 0.1 µM (human V2 receptor; [4]): 18% |
| CNCC1=CC2(CC1)CCN(C(=O)c1ccc(NC(=O)c3ccccc3-c3ccccc3)cc1)c1ccccc1C2 (stereo not drawn) [Compound 3, 4-(2-Phenylbenzoyl-4-aminobenzoyl)-3′-(methylaminomethyl)-4-aza-[6,4]-spiro-[5,6]-benzoundec-2′-ene] | 0.009 µM | 0.018 µM | < 0.01 µM |  |
| Cc1ccccc1C(=O)Nc1ccc(C(=O)N2CCC3(C=CCCC3)Cc3ccccc32)cc1 (stereo not drawn) [Compound 69] | 0.01 µM | 0.07 µM | 0.14 µM |  |
| O=C(Nc1ccc(C(=O)N2CCC3(C=CCCC3)Cc3ccccc32)cc1)c1ccccc1F (stereo not drawn) [Compound 101, 4-(2-Fluorobenzoyl-4-aminobenzoyl)-4-aza-[6,5]-spiro-[5,6]-benzododec-2′-ene] | 0.01 µM | 0.55 µM | 0.06 µM |  |
| O=C(O)C1=CC2(CC1)CCN(C(=O)c1ccc(NC(=O)c3ccccc3-c3ccccc3)cc1)c1ccccc1C2 (stereo not drawn) [Compound 4, 4-(2-Phenylbenzoyl-4-aminobenzoyl)-3′ (carboxyl)-4-aza-[6,4]-spiro-[5,6]-benzoundec-2′-ene] | 0.037 µM | 0.014 µM | 0.02 µM |  |
| COC(=O)c1ccc(C(=O)N2CCC3(C=CCCC3)Cc3ccccc32)cc1 (stereo not drawn) [Compound 54, 4-(4-Carbomethoxybenzoyl)-4-aza-[6,5]-spiro-[5,6]-benzododec-2′-ene] | 0.33 µM | 10 µM | 0.067 µM |  |
| N#Cc1ccc(C(=O)N2CCC3(C=CCCC3)Cc3ccccc32)cc1 (stereo not drawn) [Compound 33] | 0.13 µM |  | > 1 µM |  |
| O=C(Nc1ccc(C(=O)N2Cc3ccccc3CC3(C=CCCC3)C2)cc1)c1ccccc1F (stereo not drawn) [Compound 128, 4-(2-Fluorobenzoyl-4-aminobenzoyl)-3-aza-[6,5]-spiro-[5,6]-benzododec-2′-ene] | 0.042 µM |  |  | inhibition at 0.1 µM (human V2 receptor; [4]): 33% |
| O=C(Nc1ccc(C(=O)C2Cc3ccccc3CC3(C=CCCC3)C2)cc1)c1ccccc1-c1ccccc1 (stereo not drawn) [Compound 129] |  |  |  | Receptor Binding V1a (% Inh. @ concentration in μM) (V1a [1]; @ 0.1 μM): 30% @ 0.1; Receptor Binding V2 (% Inh. @ concentration in μM) (human V2 receptor; @ 0.1 μM): 9% @ 0.1 |
| Nc1ccc(C(=O)N2CCC3(C=CCCC3)Cc3ccccc32)cc1 (stereo not drawn) [Compound 68] | 0.81 µM |  |  | inhibition at 1 µM (human V2 receptor; [3]): 3% |

| SMILES | IC50 (V1a [1]) | IC50 (human V2 receptor) | IC50 (V1a [2]) | also measured |
| --- | --- | --- | --- | --- |
| O=C(c1ccc(-n2cccn2)c(F)c1)N1CCC2(C=CCCC2)Cc2ccccc21 (stereo not drawn) [Compound 156, 4-(3-Fluoro-4-(pyrazol-1-yl)benzoyl)-4-aza-[6,5]-spiro-[5,6]-benzododec-2′-ene] | 0.11 µM |  |  | inhibition at 1 µM (human V2 receptor; [3]): 13% |
| O=C(Nc1ccc(C(=O)N2CCC3(C=CCCC3)Cc3ccccc32)cc1)c1ccc(-c2ccccc2)cc1 (stereo not drawn) [Compound 84] |  |  |  | Receptor Binding V1a (% Inh. @ concentration in μM) (V1a [1]; @ 1 μM): 35% @ 1; Receptor Binding V2 (% Inh. @ concentration in μM) (human V2 receptor; @ 1 μM): 2% @ 1 |
| COc1cc(C(=O)N2CCC3(C=CCCC3)Cc3ccccc32)ccc1NC(=O)c1cc(F)ccc1C (stereo not drawn) [Compound 182] | 0.062 µM | 0.228 µM |  |  |
| O=C(Nc1ccc(C(=O)N2CCC3(C=CCCC3)Cc3ccccc32)cc1)c1ccccc1Cl (stereo not drawn) [Compound 96] | 0.012 µM | 0.18 µM |  |  |
| CC(=O)N1CCC(Oc2ccc(C(=O)N3CCC4(C=CCCC4)Cc4ccccc43)cc2F)CC1 (stereo not drawn) [Compound 168, 4-(3-Fluoro-4-(N-acetylpiperidin-4-yloxy)benzoyl)-4-aza-[6,5]-spiro-[5,6]-benzododec-2′-ene] |  |  |  | inhibition at 0.1 µM (V1a [1]; @ 0.1 μM, read-out: Receptor Binding V1a (% Inh. @ concentration in μM)): 50%; inhibition at 1 µM (human V2 receptor; [3]): 0% |
| O=C(c1ccc(OCc2ccccc2)cc1)N1CCC2(C=CCCC2)Cc2ccccc21 (stereo not drawn) [Compound 184] | 0.086 µM |  |  | inhibition at 1 µM (human V2 receptor; [3]): 34% |
| COC(=O)C1=CC2(CC1)CCN(C(=O)c1ccc(NC(=O)c3cc(F)ccc3F)cc1)c1ccccc1C2 (stereo not drawn) [Compound 218] | 0.046 µM |  |  | inhibition at 0.2 µM (human V2 receptor; @ 0.2 μM, read-out: Receptor Binding V2 (% Inh. @ concentration in μM)): 23% |
| O=C(c1ccc(OC2CCCCC2)cc1)N1CCC2(C=CCCC2)Cc2ccccc21 (stereo not drawn) [Compound 185] | 0.23 µM |  |  | inhibition at 1 µM (human V2 receptor; [3]): 42% |
| O=Cc1ccn(-c2ccc(C(=O)N3CCC4(C=CCCC4)Cc4ccccc43)cc2)c1 (stereo not drawn) [Compound 152] | 0.084 µM |  |  | inhibition at 1 µM (human V2 receptor; [3]): 13% |
| COc1cc(NC(=O)c2cc(F)ccc2C)ccc1C(=O)N1CCC2(C=C(C=O)CC2)Cc2ccccc21 (stereo not drawn) [Compound 170] | 0.055 µM | 0.21 µM |  |  |
| Cc1ccc(C(=O)N2CCC3(C=CCCC3)Cc3ccccc32)cc1 (stereo not drawn) [Compound 41] | 0.32 µM |  |  | Receptor Binding V2 (% Inh. @ concentration in μM) (human V2 receptor; @ 10 μM): 0% @ 10 |
| O=C(NCc1ccc(C(=O)N2CCC3(C=CCCC3)Cc3ccccc32)cc1)c1ccccc1 (stereo not drawn) [Compound 55] |  |  |  | Receptor Binding V1a (% Inh. @ concentration in μM) (V1a [1]; @ 10 μM): 0% @ 10; Receptor Binding V2 (% Inh. @ concentration in μM) (human V2 receptor; @ 10 μM): 29% @ 10 |
| COc1cc(NC(=O)c2ccccc2F)ccc1C(=O)N1CCC2(C=CCCC2)Cc2ccccc21 (stereo not drawn) [Compound 115] | 0.019 µM |  |  | inhibition at 0.1 µM (human V2 receptor; [4]): 37% |
| COC(=O)C1=CC2(CC1)CCN(C(=O)c1ccc(-n3nccc3C)c(N)c1)c1ccccc1C2 (stereo not drawn) [Compound 212] |  |  |  | inhibition at 0.125 µM (V1a [1]; @ 0.125 μM, read-out: Receptor Binding V1a (% Inh. @ concentration in μM)): 29%; inhibition at 1 µM (human V2 receptor; [3]): 16% |
| CN(C)c1ccc(C(=O)N2CCC3(C=CCCC3)Cc3cc(Cl)c(Cl)cc32)cc1 (stereo not drawn) [Compound 72] | 0.04 µM |  |  | Receptor Binding V2 (% Inh. @ concentration in μM) (human V2 receptor; @ 1 μM): 16% @ 1 |
| CCOC(=O)C1=CC2(CC1)CCN(C(=O)c1ccc(NC(=O)c3ccccc3C)cc1)c1ccccc1C2 (stereo not drawn) [Compound 162] | 0.069 µM |  |  | inhibition at 0.25 µM (human V2 receptor; @ 0.25 μM, read-out: Receptor Binding V2 (% Inh. @ concentration in μM)): 42% |
| O=C(c1ccc(F)c(F)c1)N1CCC2(C=CCCC2)Cc2ccccc21 (stereo not drawn) [Compound 43] | 0.68 µM |  |  | inhibition at 10 µM (human V2 receptor; @ 10 μM, read-out: Receptor Binding V2 (% Inh. @ concentration in μM)): 42% |
